This note sets out measurements from US5338736A, “Angiotensin II receptor blocking 2,3,6-substituted quinazolinones” (American Cyanamid Company, priority 1993, dated 1994).

The experiment deals with T1, Angiotensin II Receptor (Bos taurus, UniProt P25104).
T1 construct: The brownish tissue forming the adrenal cortex is scraped off and finely minced with scissors before homogenization; tissue Maxwell-Cohen (local slaughter house); host or cells: beef adrenal cortex, microsomal membranes
T1 sequence (P25104 1-359): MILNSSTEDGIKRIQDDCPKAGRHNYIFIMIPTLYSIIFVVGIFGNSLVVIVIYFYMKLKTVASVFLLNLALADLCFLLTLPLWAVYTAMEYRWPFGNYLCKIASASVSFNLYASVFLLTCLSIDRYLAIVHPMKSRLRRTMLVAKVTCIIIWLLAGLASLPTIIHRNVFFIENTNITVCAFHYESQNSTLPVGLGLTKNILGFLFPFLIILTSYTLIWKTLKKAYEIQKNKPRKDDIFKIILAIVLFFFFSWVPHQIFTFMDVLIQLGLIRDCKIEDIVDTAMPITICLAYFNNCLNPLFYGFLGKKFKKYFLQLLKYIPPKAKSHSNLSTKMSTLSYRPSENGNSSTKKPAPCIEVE
In words: Receptor Binding Assay: competition with [^125 I](Sar^1, Ile^8)AngII on adrenal cortex microsomal membranes. More on the design: species or system beef. An excerpt: Beef adrenals are obtained from a local slaughter house (Maxwell-Cohen). […] All unlabeled AngII analogs, Dimethylsulfoxide (DMSO), nucleotides, bovine serum albumin (BSA) are purchased from Sigma Chemical Co., St. Louis, Mo. U.S.A.
Approximately sixteen (16) to twenty (20) beef adrenal glands are processed as follows: fresh adrenal glands received on crushed ice are cleaned of fatty tissues and the tough membranes encapsulating the glands are removed and discarded. The brownish tissue forming the adrenal cortex is scraped off and finely minced with scissors before homogenization. Care is taken to avoid contamination with medullary tissue during dissection. The scraped cortices are suspended in twenty volumes of an ice-cold buffer medium consisting of 10 mM Tris.HCl (pH 7.4 at 22° C.) and containing 1.0 mM EDTA and 0.2M sucrose. Unless otherwise indicated, all subsequent operations are done at 4° C. […] The homogenate is centrifuged first at low speed (3,000× g) for 10 min. The resulting pellet is discarded and the supernatant fluid recentrifuged at 10,000× g for 15 minutes to give a P2 pellet. […] The translucent final pellet is harvested and combined in a small volume (20-50.0 ml) of 50.0 mM Tris.HCl buffer, pH 7.2. […] The pelleted membrane is reconstituted in 50.0 mM Tris.HCl buffer containing 0.1 mM of phenylmethylsulfonyl fluoride (PMSF) to give approximately a protein concentration of 2.5 mg per ml of tissue suspension. The membrane preparation is finally aliquoted in 1.0 ml volumes and stored at -70° C. until use in the binding assays.
Assays are performed in triplicate. The wells are left undisturbed for 60 min. at room temperature. […] The filter discs are washed with 10×1.0 ml of cold 0.9% NaCl to remove unbound ligand. […] This method is routinely used. The filters are removed from the filter grid and counted in a Parkard® Cobra Gamma Counter for 1 min. (Packard Instrument Co., Downers Grove, Ill., U.S.A.).

Turning to “[^125 I](Sar^1, Ile^8)AngII [reference compound]”, the “Specific binding for [^125 I](Sar^1, Ile^8)AngII” value (non-specific binding with 1.0 μM unlabeled (Sar^1, Ile^8)AngII) is recorded as “greater than 90%”. The IC50 is the midpoint of a concentration-inhibition curve. Lower therefore signals inhibition by little substance. Consider `CCCCc1nc2ccc(C3CCC4CCCC4O3)cc2c(=O)n1Cc1ccc(-c2ccccc2-c2nn[nH]n2)cc1` (centres unmarked) [Example 10], for which, for the setting “beef adrenal cortex membranes, [^125 I](Sar^1, Ile^8)AngII, 60 min, room temperature, pH 7.4”, the IC50 amounted to 105 nM.
